Results taken from patent US12577230B2, “2-(3-pyridin-2-yl-4-quinolin-4-yl-pyrazol-1-yl)- acetamide derivatives as inhibitors of transforming growth factor-beta receptor I/ALK5” (AGOMAB SPAIN S.L.U., priority 2020, dated 2026).

Assays:
[1] = Determination of plasma stability in human plasma; assay type: in vitro ADME; settings: 10 μM, 37° C.
Method: Determination of Plasma Stability of Some Compounds
Human plasma pooled from healthy donors extracted in citrate tubes was employed in the assay. Briefly, plates containing 10 μM compounds in plasma (total volume: 50 μL) were incubated at 37° C. at the different times (0, 30, 120 and 360 min). Then 100 μl Acetonitrile were added for precipitating plasma protein, and the plate was centrifuged at 46000 g for 60 min at 5° C. Supernatant was taken and analysed by UPLC/MS/MS for sample quantification. Stationary phase: Reverse phase Acquity UPLC® BEH C18 1.7 μm (2.1 mm×50 mm) (Waters). Mobile phase: 0.1% Formic acid water/0.1% formic acid in acetonitrile.
Flow: 0.6 ml/min. The chromatographic equipment employed was an UPL QSM Waters Acquity. Compound concentrations were calculated from the MS peak areas.

[2] = molecular target: T1, Human TGFβR-1 (Homo sapiens, UniProt P36897); assay: In vitro enzyme assay: inhibition of TGFβR-1 (ADP-Glo kinase assay); assay type: biochemical; settings: TGFβR-1 kinase 50 ng/well, 50 μM ATP, 120 min RT
T1 construct: purchased Promega V4092
T1 sequence (P36897 34-503): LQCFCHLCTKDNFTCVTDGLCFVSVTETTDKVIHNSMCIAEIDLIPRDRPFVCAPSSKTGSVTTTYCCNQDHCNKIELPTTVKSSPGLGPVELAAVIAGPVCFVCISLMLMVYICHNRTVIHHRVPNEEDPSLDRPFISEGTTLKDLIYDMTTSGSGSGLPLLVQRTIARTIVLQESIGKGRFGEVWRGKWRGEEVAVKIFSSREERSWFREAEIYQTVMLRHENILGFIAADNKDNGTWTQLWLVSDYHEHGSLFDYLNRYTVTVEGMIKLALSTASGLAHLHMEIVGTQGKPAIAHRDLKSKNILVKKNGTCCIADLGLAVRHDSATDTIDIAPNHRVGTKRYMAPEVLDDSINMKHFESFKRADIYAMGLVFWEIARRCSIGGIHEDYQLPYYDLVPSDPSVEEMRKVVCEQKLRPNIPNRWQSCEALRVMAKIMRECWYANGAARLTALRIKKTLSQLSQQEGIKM
From the text: In the present application are used the following abbreviations, with the corresponding definitions: • AcOH: Acetic Acid • ACVR2B: activin A receptor, type IIB • ALKn: activin receptor-like kinase n • ATP: adenosin triphosphate • Boc2O: tert-butyl dicarbonate • Boc: tert-Butoxycarbonyl • Clint: Intrinsic clearance • DIPEA: N,N-Diisopropylethylamine • DMA: Dimethylacetamide • DMAP: 4-Dimethylaminopyridine • DMF: N,N-Dimethylformamide • DMSO: Dimethyl sulfoxide • EDCl: N-(3-Dimethylaminopropyl)-N′-ethylcarbodiimide) • Et3N: Triethylamine • EtOAc: Ethyl acetate • EtOH: ethanol • FBS: Fetal bovine serum • H: hour • HATU: 1-[Bis(dimethylamino)methylene]-1H-1,2,3-triazolo[4,5-b]pyridinium 3-oxide hexafluorophosphate • HOBT: Hydroxybenzotriazole • HPLC: High-performance liquid chromatography • ^1H-NMR: Proton nuclear magnetic resonance • K2EDTA: ethylenediaminetetracetic acid dipotassium salt • LC: Liquid chromatography • LiHMDS: Lithium bis(trimethylsilyl)amide • LLOQ: lower limit of quantification • MeCN: Acetonitrile • MeOH: Methanol • Min: minutes • MS: Mass spectroscopy • MTBE: Methyl tert-butyl ether • NBS: N-Bromosuccinimide • NaCMC: Sodium carboxymethyl cellulose • Rt: retention time • RT: room temperature • Sem: 2-(Trimethylsilyl)ethoxymethyl • TGFβ: transforming growth factor-β • THF: Tetrahydrofuran • THF:EtOH: Tetrahydrofuran:ethanol • UPLC: ultra high-performance liquid chromatography • UV: Ultraviolet Pharmacological Activity In Vitro Enzyme Assay: Inhibition of TGFβR-1 Human TGFβR-1 inhibition experiments were carried out in a white 384-microplate low flange (Corning 3572) with ADP-Glo kinase Assay Kit (Promega V9101) and TGFβR-1 Kinase Enzyme System (Promega V4092). Test compounds and standard Galunisertib (Cayman 15312), 50 ng/well TGFβR-1 kinase and 50 μM ATP were added in a final volume of 10 μL/well, using Reaction buffer supplied by kit as assay buffer. The reaction mixture was incubated in gentle shaking for 120 min at RT, after incubation of 10 μL of ADP-Glo Reagent was added and incubated in gentle shaking for 40 min at RT. 20 μL of Kinase Detection Reagent was added and plate was incubated in gentle shaking for 30 min at RT. Luminescence (1000 ms) was measured in Perkin Elmer EnSpire Multimode plate reader. Results

[3] = molecular target: T2, ALK-5 (Homo sapiens, UniProt P36897); assay: Determination of the intracellular TGF-beta kinase activity (ALK-5), AlphaLISA SureFire p-SMAD3 in A549 cells; assay type: cell-based; settings: A549 cell line, TGF-β2 activated, p-SMAD3(Ser423/425)
T2 construct: endogenous in cells; host or cells: A549
T2 sequence (P36897 34-503): T1 sequence (P36897 34-503)
Method: Determination of the Intracellular TGF-Beta Kinase Activity (ALK-5)
The experiments were carried out in A549 cell line. 30000 cells were seeded in 200 μl of culture medium (Sigma D6046) supplemented with L-Glutamine (Sigma G7513), Penicillin/Streptomycin (Invitrogen 11058) and FBS (Sigma F9665) on a 96 wells microplate (Becton Dickinson 353072). After 16 hours medium was changed to serum free medium. Galunisertib, as inhibitor ligand (Cayman CAY-15312) and recombinant Human TGF-β2 (R&D Systems 302-B2-002) as activator of the ALK-5, were added in their corresponding wells and incubated following the instructions of the Alphascreen AlphaLISA@SureFire® Ultra™ p-SMAD3(Ser423/425) Kit (Perkin Elmer ALSU-PSM3-A500).

Structure (SMILES): Cc1cccc(-c2nn(CC(=O)Nc3cc(F)cc(C(=O)OCC4CC4)c3)cc2-c2ccnc3ccccc23)n1 [Comparative example 1, Cyclopropylmethyl 3-fluoro-5-(2-(3-(6-methylpyridin-2-yl)-4-(quinolin-4-yl)-1H-pyrazol-1-yl)acetamido)benzoate, reference compound]
- remaining percentage 0 min [1]: 100%
- remaining percentage 30 min [1]: 100%
- remaining percentage 120 min [1]: 88%
- remaining percentage 360 min [1]: 87%

Structure (SMILES): COC(=O)c1cc(Cl)cc(NC(=O)Cn2cc(-c3ccnc4ccccc34)c(-c3cccc(C)n3)n2)c1 [Comparative example 2, methyl 3-chloro-5-(2-(3-(6-methylpyridin-2-yl)-4-(quinolin-4-yl)-1H-pyrazol-1-yl)acetamido)benzoate, reference compound]
- remaining percentage 0 min [1]: 100%
- remaining percentage 30 min [1]: 83%
- remaining percentage 120 min [1]: 69%
- remaining percentage 360 min [1]: 67%

Structure (SMILES): Cc1cccc(-c2nn(CC(=O)Nc3cc(F)cc(C(=O)OCCO)c3)cc2-c2ccnc3ccccc23)n1 [Comparative example 3, 2-hydroxyethyl 3-fluoro-5-(2-(3-(6-methylpyridin-2-yl)-4-(quinolin-4-yl)-1H-pyrazol-1-yl)acetamido)benzoate, reference compound]
- remaining percentage 0 min [1]: 100%
- remaining percentage 30 min [1]: 99%
- remaining percentage 120 min [1]: 96%
- remaining percentage 360 min [1]: 73%

Structure (SMILES): Cc1cccc(-c2nn(CC(=O)Nc3cncc(C(=O)OCCN(C)C)c3)cc2-c2ccnc3ccccc23)n1 [Example 2, 2-(dimethylamino)ethyl 5-(2-(3-(6-methylpyridin-2-yl)-4-(quinolin-4-yl)-1H-pyrazol-1-yl)acetamido)nicotinate]
- IC50 [2]: < 100 nM

Structure (SMILES): Cc1cccc(-c2nn(CC(=O)Nc3ccc(C(=O)OCCN(C)C)cn3)cc2-c2ccnc3ccccc23)n1 [Example 3, 2-(dimethylamino)ethyl 6-(2-(3-(6-methylpyridin-2-yl)-4-(quinolin-4-yl)-1H-pyrazol-1-yl)acetamido)nicotinate]
- IC50 [2]: 100 to 250 nM

Structure (SMILES): Cc1cccc(-c2nn(CC(=O)Nc3cc(F)cc(C(=O)OCCN4CCOCC4)c3)cc2-c2ccnc3ccccc23)n1 [Example 4, 2-morpholinoethyl 3-fluoro-5-(2-(3-(6-methylpyridin-2-yl)-4-(quinolin-4-yl)-1H-pyrazol-1-yl)acetamido)benzoate]
- IC50 [2]: 100 to 250 nM
- IC50 [3]: < 1000 nM

Structure (SMILES): Cc1cccc(-c2nn(CC(=O)Nc3cc(F)cc(C(=O)OCCN4CCN(C)CC4)c3)cc2-c2ccnc3ccccc23)n1 [Example 6, 2-(4-methylpiperazin-1-yl)ethyl 3-fluoro-5-(2-(3-(6-methylpyridin-2-yl)-4-(quinolin-4-yl)-1H-pyrazol-1-yl)acetamido)benzoate]
- IC50 [2]: 100 to 250 nM
- IC50 [3]: < 1000 nM

Structure (SMILES): Cc1cccc(-c2nn(CC(=O)Nc3cc(F)cc(C(=O)OC4CCN(C)CC4)c3)cc2-c2ccnc3ccccc23)n1 [Example 8, 1-methylpiperidin-4-yl 3-fluoro-5-(2-(3-(6-methylpyridin-2-yl)-4-(quinolin-4-yl)-1H-pyrazol-1-yl)acetamido)benzoate]
- IC50 [2]: 100 to 250 nM

Structure (SMILES): Cc1cccc(-c2nn(CC(=O)Nc3cc(F)cc(C(=O)O[C@H]4CN5CCC4CC5)c3)cc2-c2ccnc3ccccc23)n1 [Example 10, (R)-quinuclidin-3-yl 3-fluoro-5-(2-(3-(6-methylpyridin-2-yl)-4-(quinolin-4-yl)-1H-pyrazol-1-yl)acetamido)benzoate]
- IC50 [2]: < 100 nM

Structure (SMILES): Cc1cccc(-c2nn(CC(=O)Nc3cc(F)cc(C(=O)O[C@@H]4CN5CCC4CC5)c3)cc2-c2ccnc3ccccc23)n1 [Example 11, (S)-quinuclidin-3-yl 3-fluoro-5-(2-(3-(6-methylpyridin-2-yl)-4-(quinolin-4-yl)-1H-pyrazol-1-yl)acetamido)benzoate]
- IC50 [2]: < 100 nM

Structure (SMILES): Cc1cccc(-c2nn(CC(=O)Nc3cc(F)cc(C(=O)OC45CCN(CC4)CC5)c3)cc2-c2ccnc3ccccc23)n1 [Example 12, quinuclidin-4-yl 3-fluoro-5-(2-(3-(6-methylpyridin-2-yl)-4-(quinolin-4-yl)-1H-pyrazol-1-yl)acetamido)benzoate]
- IC50 [2]: < 100 nM

Structure (SMILES): Cc1cccc(-c2nn(CC(=O)Nc3cc(F)cc(C(=O)OCCN4CCC4)c3)cc2-c2ccnc3ccccc23)n1 [Example 13, 2-(azetidin-1-yl)ethyl 3-fluoro-5-(2-(3-(6-methylpyridin-2-yl)-4-(quinolin-4-yl)-1H-pyrazol-1-yl)acetamido)benzoate]
- IC50 [2]: 100 to 250 nM

Structure (SMILES): Cc1cccc(-c2nn(CC(=O)Nc3cc(F)cc(C(=O)OCCN4CC4)c3)cc2-c2ccnc3ccccc23)n1 [Example 14, 2-(aziridin-1-yl)ethyl 3-fluoro-5-(2-(3-(6-methylpyridin-2-yl)-4-(quinolin-4-yl)-1H-pyrazol-1-yl)acetamido)benzoate]
- IC50 [2]: < 100 nM

Structure (SMILES): Cc1cccc(-c2nn(CC(=O)Nc3cc(F)cc(C(=O)OCCN)c3)cc2-c2ccnc3ccccc23)n1 [Example 16, 2-aminoethyl 3-fluoro-5-(2-(3-(6-methylpyridin-2-yl)-4-(quinolin-4-yl)-1H-pyrazol-1-yl)acetamido)benzoate]
- IC50 [2]: < 100 nM

Structure (SMILES): CCNCCOC(=O)c1cc(F)cc(NC(=O)Cn2cc(-c3ccnc4ccccc34)c(-c3cccc(C)n3)n2)c1 [Example 17, 2-(ethylamino)ethyl 3-fluoro-5-(2-(3-(6-methylpyridin-2-yl)-4-(quinolin-4-yl)-1H-pyrazol-1-yl)acetamido)benzoate]
- IC50 [2]: < 100 nM

Structure (SMILES): Cc1cccc(-c2nn(CC(=O)Nc3cc(F)cc(C(=O)OCCNC(C)C)c3)cc2-c2ccnc3ccccc23)n1 [Example 18, 2-(isopropylamino)ethyl 3-fluoro-5-(2-(3-(6-methylpyridin-2-yl)-4-(quinolin-4-yl)-1H-pyrazol-1-yl)acetamido)benzoate]
- IC50 [2]: < 100 nM
- remaining percentage 0 min [1]: 100%
- remaining percentage 30 min [1]: 33.9%
- remaining percentage 120 min [1]: 11.1%
- remaining percentage 360 min [1]: 0.1%

Structure (SMILES): Cc1cccc(-c2nn(CC(=O)Nc3cc(F)cc(C(=O)OCC4CCNCC4)c3)cc2-c2ccnc3ccccc23)n1 [Example 20, piperidin-4-ylmethyl 3-fluoro-5-(2-(3-(6-methylpyridin-2-yl)-4-(quinolin-4-yl)-1H-pyrazol-1-yl)acetamido)benzoate]
- IC50 [2]: 100 to 250 nM
